Measured values as given in ChEMBL document CHEMBL3046892, “Sensitivity difference to insecticides of a riverine caddisfly, Cheumatopsyche brevilineata (Trichoptera: Hydropsychidae), depending on the larval stages and strains” (J Pestic Sci, 2009).
≈ marks a conversion by molar mass, not a printed value.

How the values were obtained:
[1] = tested on: Cheumatopsyche; experiment: Ratio of EC50 for fifth-instar larvae of Cheumatopsyche brevilineata K to EC50 for first instar larvae of Cheumatopsyche brevilineata K; type: functional
[2] = tested on: Cheumatopsyche; experiment: Ratio of EC50 for fifth-instar larvae of Cheumatopsyche brevilineata M to EC50 for first instar larvae of Cheumatopsyche brevilineata M; type: functional
[3] = tested on: Cheumatopsyche; experiment: Insecticidal activity against first-instar larvae of Cheumatopsyche brevilineata K after 48 hr; type: functional, organism-based
[4] = tested on: Cheumatopsyche; experiment: Insecticidal activity against fifth-instar larvae of Cheumatopsyche brevilineata K after 48 hr; type: functional, organism-based
[5] = tested on: Cheumatopsyche; experiment: Insecticidal activity against first-instar larvae of Cheumatopsyche brevilineata M after 48 hr; type: functional, organism-based
[6] = tested on: Cheumatopsyche; experiment: Insecticidal activity against fifth-instar larvae of Cheumatopsyche brevilineata M after 48 hr; type: functional, organism-based
[7] = tested on: Cheumatopsyche; experiment: Insecticidal activity against first to fifth instar larvae of Cheumatopsyche brevilineata K after 48 hr; type: functional, organism-based

SMILES	Ratio EC50 [1]	Ratio EC50 [2]	EC50 [3]	EC50 [4]	EC50 [5]	EC50 [6]	EC50 [7]
COP(=S)(OC)Oc1ccc([N+](=O)[O-])c(C)c1 [FENITROTHION]	28.4	4.3	0.0261 µg/mL (≈ 0.0941 µM)	0.741 µg/mL (≈ 2.67 µM)	0.00623 µg/mL (≈ 0.0225 µM)	0.0265 µg/mL (≈ 0.0956 µM)	–
CCC(C)c1ccccc1OC(=O)NC (stereo not given) [FENOBUCARB]	36.9	10.3	0.00789 µg/mL (≈ 0.0381 µM)	0.291 µg/mL (≈ 1.4 µM)	0.00948 µg/mL (≈ 0.0457 µM)	0.0919 µg/mL (≈ 0.443 µM)	–
O=[N+]([O-])/N=C1\NCCN1Cc1ccc(Cl)nc1 [IMIDACLOPRID]	–	–	–	–	0.00664 µg/mL (≈ 0.026 µM)	0.0379 µg/mL (≈ 0.148 µM)	0.00654 µg/mL (≈ 0.0256 µM)
